Results as given in patent publication US9701670B2, “Pyrazolyl-ureas as kinase inhibitors” (RESPIVERT LIMITED, priority 2013, dated 2017).

Key:
[1] = Cryopreserved hepatocyte stability; format: in vitro ADME; settings: scaled from intrinsic clearance, mean of two experiments
Procedure: (§1) Formulae CIint(tissue clearance) mL/min/kg=[0.693/t½(min)]×[1/microsomal protein concentration mg/mL]×[mg microsomes/g liver]×[g liver/kg body weight] […] The incubations were performed at 37° C. with 100 μL samples taken from the incubation, at 0, 10, 20, 45 and 90 minutes, and reactions terminated by addition of 100 μL of acetonitrile containing carbamazepine as analytical internal standard. […] Half-life values were calculated from the relationship T1/2(min)=−0.693/λ • where λ was the slope of the Ln concentration vs time curve. • Standard compounds testosterone, midazolam and 4-methylumbelliferone are included in the assay design.
CIint(Tissue Clearance) mL/min/kg=[0.693/t½(min)]×[1/hepatocyte concentration (million cells/mL)]×[million cells/g liver]×[g liver/kg body weight] CIint(Hepatic clearance) mL/min/kg=hepatic blood flow×CIint/(hepatic blood flow+CIint) Hepatic extraction ratio (Eh)=CIint(Hepatic clearance) mL/min/kg/hepatic blood flow (mL/min/kg)

[2] = target: GSK 3α (Homo sapiens (Human), UniProt P49840); experiment: GSK 3α enzyme inhibition (FRET, Z-LYTE), Method 2; format: biochemical; settings: Method 2, different laboratory (Table 4a2); read-out: IC50 Values for Enzyme Inhibition GSK3α
GSK 3α, sequence (P49840 whole entry): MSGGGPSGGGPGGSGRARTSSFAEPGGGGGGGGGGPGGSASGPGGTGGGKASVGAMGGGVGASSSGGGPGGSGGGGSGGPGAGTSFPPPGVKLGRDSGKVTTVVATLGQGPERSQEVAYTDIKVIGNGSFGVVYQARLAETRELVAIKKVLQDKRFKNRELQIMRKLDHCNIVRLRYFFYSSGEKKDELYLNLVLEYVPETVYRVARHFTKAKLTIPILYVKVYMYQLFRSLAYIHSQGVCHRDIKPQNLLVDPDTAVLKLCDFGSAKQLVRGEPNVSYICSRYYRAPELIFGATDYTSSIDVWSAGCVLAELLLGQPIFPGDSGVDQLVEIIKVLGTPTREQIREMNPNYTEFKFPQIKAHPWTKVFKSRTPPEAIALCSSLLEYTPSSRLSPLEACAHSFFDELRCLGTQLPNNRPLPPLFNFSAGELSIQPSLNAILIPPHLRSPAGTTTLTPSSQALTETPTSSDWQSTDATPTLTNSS
Procedure: (§2) The enzyme inhibitory activities of compounds disclosed herein are determined by FRET using synthetic peptides labelled with both donor and acceptor fluorophores (Z-LYTE, Invitrogen Ltd., Paisley, UK).
The inhibitory activities of compounds of the invention against the GSK 3α enzyme isoform (Invitrogen), are evaluated by determining the level of activation/phosphorylation of the target peptide. The GSK3-α protein (500 ng/mL, 2.5 μL) is mixed with the test compound (2.5 μL at either 4 μg/mL, 0.4 μg/mL, 0.04 μg/mL, or 0.004 μg/mL) for 2 hr at RT. The FRET peptide (8 μM, 2.5 μL), which is a phosphorylation target for GSK3α, and ATP (40 μM, 2.5 μL) are then added to the enzyme/compound mixture and the resulting mixture incubated for 1 hr. Development reagent (protease, 5 μL) is added for 1 hr prior to detection in a fluorescence microplate reader (Varioskan® Flash, ThermoFisher Scientific).
(§3) In all cases, the site-specific protease cleaves non-phosphorylated peptide only and eliminates the FRET signal. Phosphorylation levels of each reaction are calculated using the ratio of coumarin emission (donor) over fluorescein emission (acceptor), for which high ratios indicate high phosphorylation and low ratios indicate low phosphorylation levels.

[3] = test system: β-catenin in d-U937 cells; experiment: (m) Accumulation of β catenin in d-U937 cells; format: cell-based, human
Procedure: U937 cells, a human monocytic cell line, are differentiated into macrophage-type cells by incubation with PMA; (100 ng/mL) for between 48 to 72 hr. The cells are then incubated with either final concentrations of test compound or vehicle for 18 hr. The induction of β-catenin by the test compounds is stopped by replacing the media with 4% formaldehyde solution. Endogenous peroxide activity is neutralised by incubating with quenching buffer (100 μL, 0.1% sodium azide, 1% H2O2 in PBS with 0.05% Tween-20) for 20 min. The cells are washed with washing buffer (200 μL; PBS containing 0.05% Tween-20) and incubated with blocking solution (200 μL; 5% milk in PBS) for 1 hr, re-washed with washing buffer (200 μL) and then incubated overnight with anti-β-catenin antibody solution (50 μL) in 1% BSA/PBS (BD, Oxford, UK).
After washing with washing buffer (3×200 μL; PBS containing 0.05% Tween-20), cells are incubated with an HRP-conjugated secondary antibody solution (100 μL) in 1% BSA/PBS (Dako, Cambridge, UK) and the resultant signal is determined colourimetrically (OD: 450 nm with a reference wavelength of 655 nm) using TMB substrate (50 μL; R&D Systems, Abingdon, UK). This reaction is stopped by addition of 1N H2SO4 solution (50 μL). Cells are then washed with washing buffer and 2% crystal violet solution (50 μL) is applied for 30 min. After washing with washing buffer (3×200 μL), 1% SDS (100 μL) is added to each well and the plates are shaken lightly for 1 hr prior to measuring the absorbance at 595 nm (Varioskan® Flash, Thermo-Fisher Scientific).
The measured OD450-655 readings are corrected for cell number by dividing the OD450-655 by the OD595 readings. […] A signal less than 0.15 (15%) of that observed for the standard control is designated as “-ve”.

[4] = Hepatic microsomal stability; format: in vitro ADME, human
Procedure: (§4) • Microsomal stability assays were performed with incubations of test compounds at 0.1 μM (n=2, final DMSO concentration 0.25%), and carried out using pooled human, dog and rat hepatic microsomes from Xenotech (Lots 1210153, 0810143 and 1110042, respectively) at 0.25 mg protein/mL in the presence of co-factor, NADPH. The incubations were performed at 37° C. with 100 μL aliquots taken from the incubation, at 0, 2, 5, 10 and 20 minutes and reactions terminated by addition of 100 μL of acetonitrile containing carbamazepine as analytical internal standard. […] Half-life values were calculated from the relationship T1/2(min)=−0.693/λ • where λ was the slope of the Ln concentration vs time curve. • The in vitro intrinsic clearance, CIint (mL/min/kg), was calculated and scaled to hepatic extraction ratios using the following scaling parameters and formulae.
as §1

[5] = target: T1, p38 MAPKα isoform (MAPK14) (Homo sapiens (Human), UniProt Q16539); experiment: p38 MAPKα enzyme inhibition (FRET, Z-LYTE), Method 2; format: biochemical; settings: Method 2, different laboratory (Table 4a2)
T1 sequence (Q16539 whole entry, canonical isoform): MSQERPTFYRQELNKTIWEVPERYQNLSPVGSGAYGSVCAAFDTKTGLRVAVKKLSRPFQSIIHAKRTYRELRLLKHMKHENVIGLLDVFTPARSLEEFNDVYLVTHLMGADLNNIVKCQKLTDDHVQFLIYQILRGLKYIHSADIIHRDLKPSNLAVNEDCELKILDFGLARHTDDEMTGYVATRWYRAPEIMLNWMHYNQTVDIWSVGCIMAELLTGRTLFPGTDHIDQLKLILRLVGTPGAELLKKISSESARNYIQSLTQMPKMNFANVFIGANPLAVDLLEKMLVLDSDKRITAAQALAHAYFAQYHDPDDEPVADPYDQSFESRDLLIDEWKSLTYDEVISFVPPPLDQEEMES
Procedure: as §2
The inhibitory activities of test compounds against the p38 MAPKα isoform (MAPK14: Invitrogen), are evaluated indirectly by determining the level of activation/phosphorylation of the down-stream molecule, MAPKAP-K2. The p38 MAPKα protein (80 ng/mL, 2.5 μL) is mixed with the test compound (2.5 μL of either 4 μg/mL, 0.4 μg/mL, 0.04 μg/mL or 0.004 μg/mL) for 2 hr at RT. […] The mixture is incubated for 1 hr at RT. Development reagent (protease, 5 μL) is added for 1 hr prior to detection in a fluorescence microplate reader (Varioskan® Flash, ThermoFisher Scientific).
as §3

[6] = Hepatic microsomal stability; format: in vitro ADME; settings: scaled from intrinsic clearance, mean of two experiments
Procedure: as §4, §1

[7] = test system: mice; experiment: Mouse cigarette smoke model (macrophage and neutrophil accumulation in BALF); format: in vivo; settings: tobacco smoke, mice; for Cell numbers in BAL Macrophage / Cell numbers in BAL Neutrophil: mean ± SEM, N = 6
Description: The result of treatment with compound Example (8) on macrophage and neutrophil accumulation in BALF in the mouse cigarette smoke model was investigated (Table 5).

[8] = target: T1, p38 MAPKα isoform (MAPK14); experiment: p38 MAPKα enzyme inhibition (FRET, Z-LYTE), Method 1; format: biochemical; settings: Method 1 (Table 4a1)
[9] = test system: Differentiated U937 cells; experiment: (l) Cell viability: MTT assay; format: cell-based, human; settings: 1 μg/mL
Method in brief: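 MTT read-out (1 h, absorbance 550 nm) on d-U937 cells after pre-incubation with 1 or 10 μg/mL compound under two regimes: 4 h, 5% FCS, or 24 h, 10% FCS RPMI1640. Values are percent loss of viability relative to vehicle (0.5% DMSO), so increases are reported as negative.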

[10] = test system: Balb/c mice; experiment: (A) LPS-induced neutrophil accumulation in mice; format: in vivo, mouse; settings: mice; for Neutrophil numbers in BAL: N = 8
Procedure: […] At T=0, mice are placed into an exposure chamber and exposed to LPS (7.0 mL, 0.5 mg/mL solution in PBS) for 30 min). After a further 8 hr the animals are anesthetized, their tracheas cannulated and BALF extracted by infusing and then withdrawing from their lungs 1.0 mL of PBS via the tracheal catheter. Total and differential white cell counts in the BALF samples are measured using a Neubaur haemocytometer. Cytospin smears of the BALF samples are prepared by centrifugation at 200 rpm for 5 min at RT and stained using a DiffQuik stain system (Dade Behring). Cells are counted using oil immersion microscopy. Data for neutrophil numbers in BAL are shown as mean±S.E.M. (standard error of the mean). The percentage inhibition of neutrophil accumulation is calculated for each treatment relative to vehicle treatment.

C#Cc1cc(Nc2nccc(Oc3ccc(NC(=O)Nc4cc(C(C)(C)C)nn4-c4ccc(N(C)C)cc4)c4ccccc34)n2)cc(C(=O)NCCN2CCOCC2)c1 [Example 80, 3-((4-((4-(3-(3-(tert-Butyl)-1-(4-(dimethylamino)phenyl)-1H-pyrazol-5-yl)ureido)naphthalen-1-yl)oxy)pyrimidin-2-yl)amino)-5-ethynyl-N-(2-morpholinoethyl)-benzamide]
Mean hepatic extraction ratio (Eh) ([1]; dog hepatocytes): 0.73 | Mean hepatic extraction ratio (Eh) ([1]; human hepatocytes): <0.61 | Mean hepatic extraction ratio (Eh) ([1]; rat hepatocytes): <0.44 | IC50 [2]: 12600 nM | % β-catenin induction ([3]; 1 μg/mL test compound): 14% | % β-catenin induction ([3]; 5 μg/mL test compound): 8% | hepatic clearance ([4]; conclusion from Tables 9a and 9b (hepatic microsomes and hepatocytes)): high hepatic clearance | Mean hepatic extraction ratio (Eh) ([4]; human hepatic microsomes, scaled from intrinsic clearance, mean of two experiments): 0.93 | IC50 [5]: 437 nM | Mean hepatic extraction ratio (Eh) ([6]; dog hepatic microsomes): 0.91 | Mean hepatic extraction ratio (Eh) ([6]; rat hepatic microsomes): 0.77

C#Cc1cc(Nc2nccc(Oc3ccc(NC(=O)Nc4cc(C(C)(C)C)nn4-c4ccc(OC)cc4)c4ccccc34)n2)cc(C(=O)NCCOC)c1 [Example 84, 3-((4-((4-(3-(3-(tert-Butyl)-1-(4-methoxyphenyl)-1H-pyrazol-5-yl)ureido)-naphthalen-1-yl)oxy)pyrimidin-2-yl)amino)-5-ethynyl-N-(2-methoxyethyl)benzamide]
IC50 [2]: 13800 nM | % β-catenin induction ([3]; 1 μg/mL test compound): 3% | % β-catenin induction ([3]; 5 μg/mL test compound): 3% | % β-catenin induction ([3]; 10 μg/mL test compound): 5% | IC50 [5]: 105 nM

COc1cc(Nc2nccc(Oc3ccc(NC(=O)Nc4cc(C(C)C)nn4-c4ccc(C)cc4)c4ccccc34)n2)cc(C(=O)NCCN2CCOCC2)c1 [Example 8, 3-((4-((4-(3-(3-Isopropyl-1-(p-tolyl)-1H-pyrazol-5-yl)ureido)naphthalen-1-yl)oxy)pyrimidin-2-yl)amino)-5-methoxy-N-(2-morpholinoethyl)benzamide]
% inhibition Macrophage in BAL ([7]; 1.6 μg/mL): 29% | % inhibition Neutrophil in BAL ([7]; 1.6 μg/mL): 28% | Cell numbers in BAL Macrophage ([7]; 1.6 μg/mL): 14.0 ± 0.50 ×10^4/mL | Cell numbers in BAL Neutrophil ([7]; 1.6 μg/mL): 13.6 ± 0.51 ×10^4/mL | % inhibition Macrophage in BAL ([7]; 8 μg/mL): 50% | % inhibition Neutrophil in BAL ([7]; 8 μg/mL): 49% | Cell numbers in BAL Macrophage ([7]; 8 μg/mL): 10.9 ± 0.42 ×10^4/mL | Cell numbers in BAL Neutrophil ([7]; 8 μg/mL): 10.2 ± 0.33 ×10^4/mL | % inhibition Macrophage in BAL ([7]; 40 μg/mL): 67% | % inhibition Neutrophil in BAL ([7]; 40 μg/mL): 61% | Cell numbers in BAL Macrophage ([7]; 40 μg/mL): 8.3 ± 0.38 ×10^4/mL | Cell numbers in BAL Neutrophil ([7]; 40 μg/mL): 8.2 ± 0.58 ×10^4/mL | % inhibition Macrophage in BAL ([7]; 200 μg/mL): 83% | % inhibition Neutrophil in BAL ([7]; 200 μg/mL): 77% | Cell numbers in BAL Macrophage ([7]; 200 μg/mL): 5.9 ± 0.31 ×10^4/mL | Cell numbers in BAL Neutrophil ([7]; 200 μg/mL): 5.6 ± 0.39 ×10^4/mL | IC50 [2]: 13200 nM | IC50 [8]: 2 nM | IC50 [5]: 44 nM | Cell viability at time point in d-U937 cells 4 h ([9]; 4 h): −ve (−ve and +ve indicate that the value is below and above respectively, the no significant effect threshold, defined as 30% inhibition at 1 μg/mL at the time point indicated.) | Cell viability at time point in d-U937 cells 24 h ([9]; 24 h): −ve (−ve and +ve indicate that the value is below and above respectively, the no significant effect threshold, defined as 30% inhibition at 1 μg/mL at the time point indicated.) | % inhibition of neutrophil numbers in BAL ([10]; 0.05 mg/mL, pre-dose time 2 hr): 40% | Neutrophil numbers in BAL ([10]; 0.05 mg/mL, pre-dose time 2 hr, mean +/− SEM): 9.6 ± 2.0 ×10^5/mL | % inhibition of neutrophil numbers in BAL ([10]; 0.2 mg/mL, pre-dose time 2 hr): 59% | Neutrophil numbers in BAL ([10]; 0.2 mg/mL, pre-dose time 2 hr, mean +/− SEM): 6.6 ± 1.4 ×10^5/mL | % inhibition of neutrophil numbers in BAL ([10]; 0.2 mg/mL, pre-dose time 12 hr): 43% | Neutrophil numbers in BAL ([10]; 0.2 mg/mL, pre-dose time 12 hr, mean +/− SEM): 9.1 ± 1.7 ×10^5/mL | % inhibition of neutrophil numbers in BAL ([10]; 0.2 mg/mL, pre-dose time 18 h): 9% | Neutrophil numbers in BAL ([10]; 0.2 mg/mL, pre-dose time 18 h, mean +/− SEM): 14.6 ± 2.5 ×10^5/mL | % inhibition of neutrophil numbers in BAL ([10]; 1.0 mg/mL, pre-dose time 2 hr): 77% | Neutrophil numbers in BAL ([10]; 1.0 mg/mL, pre-dose time 2 hr, mean +/− SEM): 3.7 ± 0.61 ×10^5/mL | % inhibition of neutrophil numbers in BAL ([10]; test substance at 0.2 mg/mL, dosed 8 hr pre-LPS challenge): 57% | Neutrophil numbers in BAL ([10]; test substance at 0.2 mg/mL, dosed 8 hr pre-LPS challenge, +/−SEM): 6.1 ± 1.2 ×10^5/mL
